According to paper PMC7180948, “New Insights into 4-Anilinoquinazolines as Inhibitors of Cardiac Troponin I–Interacting Kinase (TNNi3K)” (Molecules, 2020):

What was measured:
Assay in all cases: biochemical
Set-up in all cases: KINOMEscan competition binding panel (Eurofins DiscoverX), single concentration, percent inhibition
Details in all cases: read-out: 15 at 1 µM % inhibition
AURKB = AURKB (Homo sapiens, UniProt Q96GD4)
Summary of the method: (§1)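 Values come from single-concentration (1 µM) profiling in the Eurofins DiscoverX KINOMEscan competition-binding platform, which covers over 400 kinases.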

CDK7 = CDK7 (Homo sapiens, UniProt P50613)
Summary of the method: as §1

CSNK1G2 = CSNK1G2 (Homo sapiens, UniProt P78368)
Summary of the method: as §1

DCAMKL2 = target: T1, DCAMKL2 (Homo sapiens, UniProt Q8N568)
T1 construct: gene DCLK2
Summary of the method: as §1

EGFR(L858R,T790M) = EGFR(L858R,T790M) (Homo sapiens, UniProt P00533, L858R/T790M)
Summary of the method: as §1

EPHA3 = EPHA3 (Homo sapiens, UniProt P29320)
Summary of the method: as §1

ERN1 = ERN1 (Homo sapiens, UniProt O75460)
Summary of the method: as §1

GAK = GAK (Homo sapiens, UniProt O14976)
Sequence of GAK (O14976 whole entry): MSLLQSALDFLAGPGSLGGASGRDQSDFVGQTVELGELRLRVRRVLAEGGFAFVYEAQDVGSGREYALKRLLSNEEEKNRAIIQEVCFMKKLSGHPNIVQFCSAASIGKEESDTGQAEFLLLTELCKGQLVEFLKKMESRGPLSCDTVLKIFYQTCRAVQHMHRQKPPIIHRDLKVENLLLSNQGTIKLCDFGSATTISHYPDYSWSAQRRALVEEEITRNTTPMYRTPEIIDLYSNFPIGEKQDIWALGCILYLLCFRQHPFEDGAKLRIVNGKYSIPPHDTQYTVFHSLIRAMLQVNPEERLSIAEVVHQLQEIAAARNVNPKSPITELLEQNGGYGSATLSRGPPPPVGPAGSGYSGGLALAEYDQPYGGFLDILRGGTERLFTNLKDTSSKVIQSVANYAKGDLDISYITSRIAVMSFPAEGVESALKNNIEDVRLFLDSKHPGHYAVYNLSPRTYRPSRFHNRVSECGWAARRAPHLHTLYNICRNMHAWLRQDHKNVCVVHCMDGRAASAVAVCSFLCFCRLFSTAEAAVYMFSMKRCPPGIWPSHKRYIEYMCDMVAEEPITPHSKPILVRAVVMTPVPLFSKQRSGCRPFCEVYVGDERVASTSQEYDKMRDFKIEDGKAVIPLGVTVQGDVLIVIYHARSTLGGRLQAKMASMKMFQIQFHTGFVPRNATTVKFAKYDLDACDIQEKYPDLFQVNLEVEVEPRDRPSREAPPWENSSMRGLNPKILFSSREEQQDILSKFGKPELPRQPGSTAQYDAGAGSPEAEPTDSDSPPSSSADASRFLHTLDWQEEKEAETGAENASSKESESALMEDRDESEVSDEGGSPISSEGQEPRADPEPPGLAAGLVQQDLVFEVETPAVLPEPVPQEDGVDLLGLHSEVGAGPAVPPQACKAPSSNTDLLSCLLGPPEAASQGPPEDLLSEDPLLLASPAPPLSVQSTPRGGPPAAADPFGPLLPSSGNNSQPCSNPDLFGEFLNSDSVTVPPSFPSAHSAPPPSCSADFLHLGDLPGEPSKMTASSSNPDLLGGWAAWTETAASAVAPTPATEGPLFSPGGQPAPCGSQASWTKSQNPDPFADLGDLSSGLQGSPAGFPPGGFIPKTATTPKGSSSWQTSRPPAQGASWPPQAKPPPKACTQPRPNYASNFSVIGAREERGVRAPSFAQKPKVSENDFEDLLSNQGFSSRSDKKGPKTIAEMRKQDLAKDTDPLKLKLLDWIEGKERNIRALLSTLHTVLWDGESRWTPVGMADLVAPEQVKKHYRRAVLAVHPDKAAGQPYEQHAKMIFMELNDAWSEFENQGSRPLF
Summary of the method: as §1

HIPK2 = HIPK2 (Homo sapiens, UniProt Q9H2X6)
Sequence of HIPK2 (Q9H2X6 whole entry): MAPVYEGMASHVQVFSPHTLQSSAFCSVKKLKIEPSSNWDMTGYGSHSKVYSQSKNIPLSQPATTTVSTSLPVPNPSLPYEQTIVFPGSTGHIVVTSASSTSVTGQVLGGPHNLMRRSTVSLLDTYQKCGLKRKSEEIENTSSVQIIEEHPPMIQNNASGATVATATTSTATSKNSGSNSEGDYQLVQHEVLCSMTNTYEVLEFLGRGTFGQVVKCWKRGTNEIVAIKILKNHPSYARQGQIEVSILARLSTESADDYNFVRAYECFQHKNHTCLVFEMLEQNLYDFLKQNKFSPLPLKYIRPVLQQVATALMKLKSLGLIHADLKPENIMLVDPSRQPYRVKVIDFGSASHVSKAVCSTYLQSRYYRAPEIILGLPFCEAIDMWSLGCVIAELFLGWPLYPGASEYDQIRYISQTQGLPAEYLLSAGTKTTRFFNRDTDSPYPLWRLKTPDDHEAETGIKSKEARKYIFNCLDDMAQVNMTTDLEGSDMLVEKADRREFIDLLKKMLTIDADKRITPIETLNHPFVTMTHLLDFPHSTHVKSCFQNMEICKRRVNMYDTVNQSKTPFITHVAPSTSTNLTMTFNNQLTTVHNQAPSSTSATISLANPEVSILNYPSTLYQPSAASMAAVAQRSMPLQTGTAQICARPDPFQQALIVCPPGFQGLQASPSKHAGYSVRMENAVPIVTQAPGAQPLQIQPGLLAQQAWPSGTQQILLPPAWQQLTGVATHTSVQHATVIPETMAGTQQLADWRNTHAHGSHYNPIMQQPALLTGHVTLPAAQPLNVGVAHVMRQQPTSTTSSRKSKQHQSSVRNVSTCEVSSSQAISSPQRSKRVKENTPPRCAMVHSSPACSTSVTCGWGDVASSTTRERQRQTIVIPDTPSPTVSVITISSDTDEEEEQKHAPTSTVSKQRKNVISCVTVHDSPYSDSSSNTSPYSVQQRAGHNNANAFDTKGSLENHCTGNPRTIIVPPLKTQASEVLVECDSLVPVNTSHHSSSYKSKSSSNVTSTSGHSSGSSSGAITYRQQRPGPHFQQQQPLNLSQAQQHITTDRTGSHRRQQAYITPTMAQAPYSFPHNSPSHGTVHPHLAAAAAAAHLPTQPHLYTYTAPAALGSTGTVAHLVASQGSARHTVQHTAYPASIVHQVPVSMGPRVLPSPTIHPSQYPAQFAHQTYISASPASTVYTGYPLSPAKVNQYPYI
Summary of the method: as §1

[1] = target: T2, JAK3(JH1domain-catalytic) (Homo sapiens, UniProt P52333)
T2 construct: JH1domain-catalytic
Summary of the method: as §1

MAP3K1 = MAP3K1 (Homo sapiens, UniProt Q13233)
Summary of the method: as §1

MYLK = MYLK (Homo sapiens, UniProt Q15746)
Summary of the method: as §1

NEK5 = NEK5 (Homo sapiens, UniProt Q6P3R8)
Summary of the method: as §1

NEK6 = NEK6 (Homo sapiens, UniProt Q9HC98)
Summary of the method: as §1

PAK7 = target: T3, PAK7 (Homo sapiens, UniProt Q9P286)
T3 construct: gene PAK5
Summary of the method: as §1

PIP5K2B = target: T4, PIP5K2B (Homo sapiens, UniProt P78356)
T4 construct: gene PIP4K2B
Summary of the method: as §1

PKN2 = PKN2 (Homo sapiens, UniProt Q16513)
Summary of the method: as §1

PRKG2 = PRKG2 (Homo sapiens, UniProt Q13237)
Sequence of PRKG2 (Q13237 whole entry): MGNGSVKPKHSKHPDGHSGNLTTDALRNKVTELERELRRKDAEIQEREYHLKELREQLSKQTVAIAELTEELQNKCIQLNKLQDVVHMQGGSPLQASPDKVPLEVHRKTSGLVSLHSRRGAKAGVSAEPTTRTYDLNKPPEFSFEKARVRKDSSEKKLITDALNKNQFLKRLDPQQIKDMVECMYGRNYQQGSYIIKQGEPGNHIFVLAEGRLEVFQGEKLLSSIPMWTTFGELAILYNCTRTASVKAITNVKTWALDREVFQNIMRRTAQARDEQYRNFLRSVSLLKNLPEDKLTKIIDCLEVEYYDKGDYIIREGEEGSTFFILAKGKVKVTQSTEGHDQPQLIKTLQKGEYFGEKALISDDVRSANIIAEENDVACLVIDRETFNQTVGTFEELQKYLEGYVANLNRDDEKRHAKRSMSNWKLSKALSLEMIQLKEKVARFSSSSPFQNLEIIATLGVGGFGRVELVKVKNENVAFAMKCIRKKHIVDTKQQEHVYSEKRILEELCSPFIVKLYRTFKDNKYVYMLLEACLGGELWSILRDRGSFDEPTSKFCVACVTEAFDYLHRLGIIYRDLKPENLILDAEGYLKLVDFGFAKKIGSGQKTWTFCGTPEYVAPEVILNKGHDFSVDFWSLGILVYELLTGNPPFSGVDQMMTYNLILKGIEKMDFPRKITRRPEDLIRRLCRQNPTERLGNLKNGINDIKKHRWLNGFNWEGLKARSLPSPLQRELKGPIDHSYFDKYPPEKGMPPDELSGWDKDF
Summary of the method: as §1

SBK1 = SBK1 (Homo sapiens, UniProt Q52WX2)
Sequence of SBK1 (Q52WX2 whole entry): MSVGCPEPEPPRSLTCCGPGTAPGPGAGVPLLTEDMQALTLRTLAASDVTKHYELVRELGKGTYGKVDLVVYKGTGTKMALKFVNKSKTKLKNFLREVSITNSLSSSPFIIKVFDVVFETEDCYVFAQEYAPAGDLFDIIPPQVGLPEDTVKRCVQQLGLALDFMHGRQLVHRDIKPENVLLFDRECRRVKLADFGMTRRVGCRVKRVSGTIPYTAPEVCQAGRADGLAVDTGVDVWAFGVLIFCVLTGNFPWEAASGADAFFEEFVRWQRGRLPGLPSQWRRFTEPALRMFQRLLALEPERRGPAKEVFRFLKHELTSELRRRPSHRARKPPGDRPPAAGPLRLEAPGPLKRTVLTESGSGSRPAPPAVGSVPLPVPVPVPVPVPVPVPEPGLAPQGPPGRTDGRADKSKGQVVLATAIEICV
Summary of the method: as §1

TGFBR2 = TGFBR2 (Homo sapiens, UniProt P37173)
Summary of the method: as §1

TRKA = target: T5, TRKA (Homo sapiens, UniProt P04629)
T5 construct: gene NTRK1
Summary of the method: as §1

WEE1 = WEE1 (Homo sapiens, UniProt P30291)
Sequence of WEE1 (P30291 whole entry): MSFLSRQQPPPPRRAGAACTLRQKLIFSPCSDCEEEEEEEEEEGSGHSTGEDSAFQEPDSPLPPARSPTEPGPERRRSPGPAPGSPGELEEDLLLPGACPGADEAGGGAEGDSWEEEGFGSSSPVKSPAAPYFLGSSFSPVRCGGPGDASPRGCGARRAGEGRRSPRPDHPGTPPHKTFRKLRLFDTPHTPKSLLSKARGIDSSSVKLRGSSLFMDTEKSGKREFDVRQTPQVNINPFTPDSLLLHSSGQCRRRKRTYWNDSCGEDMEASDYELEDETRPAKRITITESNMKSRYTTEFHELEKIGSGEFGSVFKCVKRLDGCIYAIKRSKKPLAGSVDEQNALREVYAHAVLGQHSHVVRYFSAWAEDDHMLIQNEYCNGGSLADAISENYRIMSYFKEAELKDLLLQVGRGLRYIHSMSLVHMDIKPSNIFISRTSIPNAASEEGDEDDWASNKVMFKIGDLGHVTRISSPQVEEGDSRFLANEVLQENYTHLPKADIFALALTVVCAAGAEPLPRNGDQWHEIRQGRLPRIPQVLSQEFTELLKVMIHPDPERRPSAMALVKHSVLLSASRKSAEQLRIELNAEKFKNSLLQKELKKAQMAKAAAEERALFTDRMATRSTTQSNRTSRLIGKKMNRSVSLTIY
Summary of the method: as §1

ZAP70 = ZAP70 (Homo sapiens, UniProt P43403)
Summary of the method: as §1

p38-gamma = target: T6, p38-gamma (Homo sapiens, UniProt P53778)
T6 construct: gene MAPK12
T6 sequence (P53778 whole entry): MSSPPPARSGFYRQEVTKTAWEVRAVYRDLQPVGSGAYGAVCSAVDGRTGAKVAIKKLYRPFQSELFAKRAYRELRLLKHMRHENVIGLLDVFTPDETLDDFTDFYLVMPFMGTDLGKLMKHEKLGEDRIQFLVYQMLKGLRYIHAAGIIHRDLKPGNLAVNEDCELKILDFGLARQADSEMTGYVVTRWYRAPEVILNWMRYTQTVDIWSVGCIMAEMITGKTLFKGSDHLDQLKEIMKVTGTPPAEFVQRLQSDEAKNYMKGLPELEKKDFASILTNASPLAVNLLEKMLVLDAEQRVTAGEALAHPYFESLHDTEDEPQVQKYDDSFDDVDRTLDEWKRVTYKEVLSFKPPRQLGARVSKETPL
Summary of the method: as §1

Sequence of AURKB (Q96GD4 whole entry): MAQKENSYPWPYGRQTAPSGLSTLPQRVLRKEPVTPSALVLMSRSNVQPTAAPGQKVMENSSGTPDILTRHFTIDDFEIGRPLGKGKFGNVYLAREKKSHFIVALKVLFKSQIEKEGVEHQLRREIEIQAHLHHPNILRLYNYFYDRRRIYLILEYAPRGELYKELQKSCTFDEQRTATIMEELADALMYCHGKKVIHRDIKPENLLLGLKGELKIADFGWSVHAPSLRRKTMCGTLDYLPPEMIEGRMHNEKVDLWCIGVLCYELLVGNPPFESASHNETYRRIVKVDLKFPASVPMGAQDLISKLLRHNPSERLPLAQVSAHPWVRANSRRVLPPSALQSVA

- inhibition at 1 µM (AURKB): 3%
- inhibition at 1 µM (CDK7): 18%
- inhibition at 1 µM (CSNK1G2): 0%
- inhibition at 1 µM (DCAMKL2): 0%
- inhibition at 1 µM (EGFR(L858R,T790M)): 16%
- inhibition at 1 µM (EPHA3): 2%
- inhibition at 1 µM (ERN1): 3%
- inhibition at 1 µM (GAK): 78%
- inhibition at 1 µM (HIPK2): 9%
- inhibition at 1 µM [1]: 10%
- inhibition at 1 µM (MAP3K1): 27%
- inhibition at 1 µM (MYLK): 0%
- inhibition at 1 µM (NEK5): 0%
- inhibition at 1 µM (NEK6): 0%
- inhibition at 1 µM (PAK7): 0%
- inhibition at 1 µM (PIP5K2B): 0%
- inhibition at 1 µM (PKN2): 0%
- inhibition at 1 µM (PRKG2): 21%
- inhibition at 1 µM (SBK1): 44%
- inhibition at 1 µM (TGFBR2): 8%
- inhibition at 1 µM (TRKA): 37%
- inhibition at 1 µM (WEE1): 7%
- inhibition at 1 µM (ZAP70): 0%
- inhibition at 1 µM (p38-gamma): 17%
Structure (SMILES): CNS(=O)(=O)c1ccc(N(C)C)c(Nc2nc(C)nc3cc(OC)c(OC)cc23)c1 [compound 15, 3-((6,7-dimethoxy-2-methylquinazolin-4-yl)amino)-4-(dimethylamino)-N-methylbenzenesulfonamide]
